# Results published in patent US20260209175A1, “PHARMACEUTICALLY ACCEPTABLE 5-METHOXY-N,N-DIMETHYL[…] AND COMPOSITIONS THEREOF” (priority 2022, published 2026).
# Structures can show the parent of a compound that is named as a salt.
# Columns and labels:
# [1] = Dynamic Vapor Sorption (DVS) analysis of salts, with XRPD of the post-DVS sample; format: physicochemical; details: for sorption/desorption behaviour (reversibility, hysteresis): DVS isotherm; for deliquescence during DVS: high RH
# Description: XRPD diffractograms were acquired using Bruker D2 Phaser diffractometer equipped with LYNXEYE detector. Samples were prepared using a zero-background sample holder. The samples were scanned from 5 to 32° (2θ) using a step size of 0.02° and a time per step of 0.13 second whilst spinning the sample. Diffractograms were plotted using the EVA program from Bruker.
# DVS analyses were performed on TA Instrument DVS Q5000. Samples were added to a pre-tared metallised quartz crucible and run at 25° C. from 40% RH to 90% RH, down to zero and back to 40%. This cycle was repeated in increments of 10% RH.
# [2] = Thermo-Gravimetric Analysis (TGA), thermal stability; format: physicochemical; details: 10° C./min ramp; for thermally stable up to (TGA): nitrogen
# Description: TGA thermograms were obtained with a TA Instrument Discovery 550 in Al pans. The heating rate used was 10° C./min linear ramp from 25 to 400° C. with a nitrogen purging at a rate of 60 ml/min. TGA thermograms were analysed using TRIOS software.
# [3] = Polymorphism screen of hydrochloride salt (thermal cycling, evaporations), XRPD; format: physicochemical; details: for XRPD Result: lyophilised hydrochloride salt, thermally cycled between ambient and 40° C., three days
# Description: To render the material amorphous and thus remove seeds of the pattern 1 the material was rendered amorphous. To 2.605 g of the hydrochloride lot RPI-014-022 dioxane (55 ml) and water (5 ml) was added. The mixture was agitated gently and warmed to aid dissolution.
# Twenty five of the lyophilised samples were treated with solvent and thermally cycled between ambient and 40° C. with four hours spent under each condition. After three days and solids were isolated by centrifuge filtration and analysed by XRPD.
# Twelve samples of the lyophilised material were treated with a minimal volume (ca 0.5 ml) of warm solvent, syringe filtered through a 0.22 µm filter and added to a clean HPLC vial and allowed to evaporate at RT. The solvents used and XRPD results following evaporation are detailed in the Table below: […]
# [4] = Solubility assessments in four different media; format: physicochemical; details: 250 mg per vial; for Observation: 1 ml media at 37° C.
# Description: Solubility assessments of 5-MeO-DMT oxalate, hydrobromide fumarate and benzoate were performed in four different media: […]
# [5] = format: physicochemical; details: 40° C./75% RH, three days
# Description: Salt screening studies with 24 selected counter-ions were performed to determine if 5-MeO-DMT free base is amenable to salt formation. […] Salts were examined by XRPD, TGA, DSC, 1H NMR and some by DVS analyses. Short term physical stability was examined by storage of salts at 40° C./75% RH for three days.
# Physical stability stress tests were conducted on generated crystalline salts at controlled temperature and relative humidity. The powder samples were stored at 40° C./75% RH for three days. After this time samples were analysed by XRPD to see whether the physical state of salts changed during the storage.
smiles,measurement,setting,value
"COc1ccc2[nH]cc(CCN(C)C)c2c1 [Benzenesulfonate salt, 5-MeO-DMT benzenesulfonate]",total water (moisture) uptake between 0% RH and 90% RH,[1]; 25° C,approximately 21 % w/w
same,"sorption/desorption behaviour (reversibility, hysteresis)",[1]; 25° C,hysteresis between 40-80% RH
same,water uptake up to 60% RH,[1]; first sorption isotherm,1.2 % w/w
same,moisture absorption at 70% RH,[1]; first sorption isotherm,7 % w/w
same,moisture absorption at 80% RH,[1]; first sorption isotherm,14 % w/w
same,deliquescence during DVS,[1],begins to deliquesce
same,thermally stable up to (TGA),[2],250 °C
COc1ccc2[nH]cc(CCN(C)C)c2c1.Cl [DJP2202-007-02],XRPD Result,[3]; 1-Propanol,Pattern 1
COc1ccc2[nH]cc(CCN(C)C)c2c1.Cl [DJP2202-007-03],XRPD Result,[3]; 2-Butanol,Pattern 1
COc1ccc2[nH]cc(CCN(C)C)c2c1.Cl [DJP2202-007-05],XRPD Result,[3]; 2-Methyltetrahydrofuran,Pattern 1
COc1ccc2[nH]cc(CCN(C)C)c2c1.Cl [DJP2202-007-06],XRPD Result,[3]; 2-Propanol,Pattern 1
COc1ccc2[nH]cc(CCN(C)C)c2c1.Cl [DJP2202-007-07],XRPD Result,[3]; Acetone,Pattern 1
COc1ccc2[nH]cc(CCN(C)C)c2c1.Cl [DJP2202-007-08],XRPD Result,[3]; Acetonitrile,Pattern 1
COc1ccc2[nH]cc(CCN(C)C)c2c1.Cl [DJP2202-007-09],XRPD Result,[3]; Anisole,Pattern 1
COc1ccc2[nH]cc(CCN(C)C)c2c1.Cl [DJP2202-007-10],XRPD Result,[3]; Chlorobenzene,Pattern 1
COc1ccc2[nH]cc(CCN(C)C)c2c1.Cl [DJP2202-007-11],XRPD Result,[3]; Ethanol,Pattern 1
COc1ccc2[nH]cc(CCN(C)C)c2c1.Cl [DJP2202-007-12],XRPD Result,[3]; Ethyl acetate,Pattern 1
COc1ccc2[nH]cc(CCN(C)C)c2c1.Cl [DJP2202-007-13],XRPD Result,[3]; Isopropyl acetate (experiment 007-13),Pattern 1
COc1ccc2[nH]cc(CCN(C)C)c2c1.Cl [DJP2202-007-15],XRPD Result,[3]; Propyl acetate,Pattern 1
COc1ccc2[nH]cc(CCN(C)C)c2c1.Cl [DJP2202-007-16],XRPD Result,[3]; Methylethyl ketone,Pattern 2
COc1ccc2[nH]cc(CCN(C)C)c2c1.Cl [DJP2202-007-20],XRPD Result,[3]; iso-Propyl acetate (experiment 007-20),Pattern 1
COc1ccc2[nH]cc(CCN(C)C)c2c1.Cl [DJP2202-007-21],XRPD Result,[3]; 2-Me-1-PrOH,Pattern 1
COc1ccc2[nH]cc(CCN(C)C)c2c1.Cl [DJP2202-007-22],XRPD Result,[3]; Tetrahydrofuran,Pattern 1
"COc1ccc2[nH]cc(CCN(C)C)c2c1 [Fumarate salt, 5-MeO-DMT fumarate]",mass difference between 40% RH and 0% RH,[1]; salt produced during scale-up,~ 2.84%
same,solid form after DVS (XRPD post DVS),[1]; salt produced during scale-up,a change in crystalline form occurred
same,pH after addition of 1 ml media at 37° C.,[4]; SNF,5.14
same,Observation,[4]; SNF,Clear solution
same,pH after addition of 1 ml media at 37° C.,[4]; pH 1.2 buffer,5.24
same,Observation,[4]; pH 1.2 buffer,Clear solution
same,pH after addition of 1 ml media at 37° C.,[4]; pH 4.5 buffer,5.31
same,Observation,[4]; pH 4.5 buffer,Clear solution
same,pH after addition of 1 ml media at 37° C.,[4]; pH 6.8 buffer,5.79
same,Observation,[4]; pH 6.8 buffer,Clear solution
same,thermally stable up to (TGA),[2],150 °C
"COc1ccc2[nH]cc(CCN(C)C)c2c1.Cl [Hydrochloride pattern 2, 5-MeO-DMT hydrochloride]",onset of decomposition / mass loss (TGA),[2]; hydrochloride,around 256 °C
"COc1ccc2[nH]cc(CCN(C)C)c2c1.Cl [Hydrochloride pattern 3, 5-MeO-DMT hydrochloride]",onset of decomposition / mass loss (TGA),[2]; hydrochloride,around 260 °C
"COc1ccc2[nH]cc(CCN(C)C)c2c1 [Ketoglutarate salt, 5-MeO-DMT ketoglutarate]",water uptake at 40% RH,"[1]; first sorption isotherm, 40% RH",0.13 % w/w
same,moisture absorption at 80% RH,[1]; first sorption isotherm,2.55 % w/w
same,water uptake at 90% RH,"[1]; first sorption isotherm, 90% RH",28.14 % w/w
same,deliquescence during DVS,[1],deliquesce at high RH
"COc1ccc2[nH]cc(CCN(C)C)c2c1.O=C(O)CC(O)C(=O)O [Malate salt, 5-MeO-DMT malate]",crystalline form by XRPD after storage,[5],conversion to a “gum” material
same,thermally stable up to (TGA),[2],around 170 °C
"COc1ccc2[nH]cc(CCN(C)C)c2c1 [Phosphate salt, 5-MeO-DMT phosphate]",total reversible mass change between 0-90% RH,"[1]; Example 3 Pattern 1 batches, listed as 5-MeO-DMT Phosphate Pattern 1",0.3 wt. %
same,crystalline form by XRPD after storage,[5],did not undergo any transformation
"COc1ccc2[nH]cc(CCN(C)C)c2c1 [Saccharinate salt, 5-MeO-DMT saccharinate]",thermally stable up to (TGA),[2],200 °C
"COc1ccc2[nH]cc(CCN(C)C)c2c1 [Tosylate salt, 5-MeO-DMT tosylate]",total water (moisture) uptake between 0% RH and 90% RH,[1]; 25° C,approximately 1.9 % w/w
same,"sorption/desorption behaviour (reversibility, hysteresis)",[1]; 25° C,reversibly without hysteresis
same,hygroscopicity classification,"[1]; salt screen / scale-up batches, DVS at 25° C",slightly hygroscopic (Pharmaceuticals that pick up between 0.2% and 2.0% moisture at 80% RH are considered slightly hygroscopic)
same,solid form after DVS (XRPD post DVS),[1]; salt screen batches,did not undergo any solid-state changes
same,crystalline form by XRPD after storage,[5],identical XRPD pattern
"COc1ccc2[nH]cc(CCN(C)C)c2c1.O=C(O)c1ccccc1 [benzoate salt pattern 2, 5-MeO-DMT benzoate]",thermally stable up to (TGA),[2],~ 170 °C
"COc1ccc2[nH]cc(CCN(C)C)c2c1.O=C(O)c1ccccc1 [benzoate salt pattern 3, 5-MeO-DMT benzoate]",onset of decomposition / mass loss (TGA),[2],approximately 190 °C
"COc1ccc2[nH]cc(CCN(C)C)c2c1.O=C(O)c1ccccc1 [benzoate salt pattern 4, 5-MeO-DMT benzoate]",onset of decomposition / mass loss (TGA),[2],~ 190 °C
same,thermally stable up to (TGA),[2],~ 190 °C
"COc1ccc2[nH]cc(CCN(C)C)c2c1 [free base, 5-methoxy-N,N-dimethyltryptamine]",thermally stable up to (TGA),[2],150 °C
"COc1ccc2[nH]cc(CCN(C)C)c2c1 [glycolate salt, 5-MeO-DMT glycolate]","total moisture uptake between 0% RH and 90% RH, 1st cycle","[1]; 25° C, 1st cycle",approximately 62 % w/w
same,"total moisture uptake between 0% RH and 90% RH, 2nd cycle","[1]; 25° C, 2nd cycle",~59 % w/w
same,"sorption/desorption behaviour (reversibility, hysteresis)",[1]; 25° C,hysteresis between 40-80% RH
same,water uptake up to 60% RH,[1]; first sorption isotherm,2.3 % w/w
same,moisture absorption at 70% RH,[1]; first sorption isotherm,11 % w/w
same,moisture absorption at 80% RH,[1]; first sorption isotherm,33 % w/w
same,deliquescence during DVS,[1],begins to deliquesce
same,thermally stable up to (TGA),[2],around 155 °C
"COc1ccc2[nH]cc(CCN(C)C)c2c1.Cl [hydrochloride salt, 5-MeO-DMT hydrochloride]",thermally stable up to (TGA),[2],~ 235 °C
same,XRPD Results,"[3]; evaporation at RT of lyophilised material from 1-PrOH, DJP2202-011-02",Pattern 1
same,XRPD Results,"[3]; evaporation at RT of lyophilised material from EtOH, DJP2202-011-05",Pattern 1
same,XRPD Results,"[3]; evaporation at RT of lyophilised material from IPA, DJP2202-011-06",Pattern 1
same,XRPD Results,"[3]; evaporation at RT of lyophilised material from MEK, DJP2202-011-11",Pattern 1
same,XRPD Results,"[3]; evaporation at RT of lyophilised material from MeCN, DJP2202-011-12",Oil
